Data from PMC4303309 (Biochemistry, 2014).

Molecular target: DaCld (Dechloromonas aromatica (nom. nud.), UniProt Q47CX0)
Conditions: MCD as HOCl trap

Sequence of DaCld (Q47CX0 35-282 limits assumed): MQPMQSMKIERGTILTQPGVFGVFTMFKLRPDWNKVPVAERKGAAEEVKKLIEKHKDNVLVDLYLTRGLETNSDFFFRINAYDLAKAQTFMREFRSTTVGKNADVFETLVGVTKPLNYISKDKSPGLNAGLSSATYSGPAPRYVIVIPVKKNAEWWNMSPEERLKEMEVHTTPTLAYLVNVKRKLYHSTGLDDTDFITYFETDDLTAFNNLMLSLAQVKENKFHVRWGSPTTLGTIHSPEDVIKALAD

In the case of `[O-][Cl+]O` [chlorite], the “reaction with chlorite in the presence of MCD (UV-visible)” value is reported as “no MCD-trappable HOCl could be detected for DaCld under conditions similar to those used”.
